The METLIN SMRT retention time set (Domingo-Almenara et al. 2019)

Test: gradient 5% acetonitrile 3 min, to 50% in 2 min, to 85% in 15 min, held 3 min, 100 µL/min
Settings: column: Zorbax Extend-C18 2.1 x 50 mm; eluents: water / acetonitrile, 0.1% formic acid
Method in brief: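 Mixtures of ~100 pure standards were chromatographed on a Zorbax Extend-C18 column (2.1 × 50 mm, 1.8 μm) at 100 μL/min using water and acetonitrile, each with 0.1% formic acid. Detection used a quadrupole time-of-flight mass spectrometer in positive and negative ionization mode, and data collection spanned 3 months. Retention time was obtained from adduct peaks picked computationally and each checked manually.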

SMILES | RP-LC retention time [s]
Cc1nc(OCC(=O)Nc2ccc(F)cc2F)c2ccccc2n1 | 742
COc1cc(NC(=O)CCSc2nc3c(=O)n(C)c(=O)n(C)c3n2C)c(OC)cc1Cl | 735
Cn1c(CN2CCN(C(=O)COc3ccc(F)cc3)CC2)nc2ccccc21 | 581
COc1ccc(-c2noc(-c3ccc(NCCN(C)C)nn3)n2)cc1 | 630
O=c1c2sccc2n(Cc2nc(-c3cccc(Br)c3)no2)c(=O)n1Cc1ccccc1 | 1110
O/C(=C\Sc1nnc(COc2ccc(Cl)cc2Cl)o1)c1ccc(F)cc1 | 915
CCOc1cc(C(=O)NC(C(=O)Nc2nc3ccccc3[nH]2)C(C)CC)cc(OCC)c1OCC (stereo unspecified) | 854
CCc1noc(-c2cnc3nc(C)ccc3c2NCc2ccc(OC)cc2OC)n1 | 752
O=c1ccc(-c2cccc(Cl)c2)nn1CCc1nc(-c2ccccc2)no1 | 1030
CC1(c2ccccc2)O[C@@H]2C[C@H]3[C@@H]4CCC5=CC(=O)C=C[C@]5(C)[C@@]4(F)[C@@H](O)C[C@]3(C)[C@]2(C(=O)CO)O1 (stereo partly specified) | 870
COc1cccc(C(=O)Nc2nc(-c3ccc(OC)c([N+](=O)[O-])c3)c(C)s2)c1 | 1070
COc1ccc(C)cc1NC1=NS(=O)(=O)c2ccccc21 | 852
CCOC(=O)c1cc(S(=O)(=O)N2CCCC2C(=O)NC2CCCC2)cn1C (stereo unspecified) | 732
CCOC(=O)c1ccc(Nc2c(-c3ccc(C(=O)OC)cc3)nc3cnccn23)cc1 | 856
Cc1noc(C)c1CNC(=O)c1cc(F)ccc1Cl | 726
COc1ccc2c(c1)C1(CCN(C(=O)Cc3ccc(OC)c(Cl)c3)C1)C(=O)N2 (stereo unspecified) | 745
O=C(O)/C(=C/c1ccccc1)c1ccccc1 | 923

Next, values leading:

RP-LC retention time [s] | SMILES
1090 | CC(C)c1cccc(NC(=O)c2cn(C)nc2S(=O)(=O)N2CCSCC2)c1
876 | CC(C)N1C(=O)c2cccnc2Sc2cc(NC(=O)Cc3cccc(F)c3)ccc21
647 | Cc1cccc(NC(=O)N2CCN(c3cnn4c(C5CC5)nnc4c3)CC2)c1
895 | Cc1ccc2c(c1)NC(=O)C(C(=O)NC1CCCCCCC1)O2 (stereo unspecified)
833 | Cn1ncc2c(N3CCSCC3)nc(C(=O)NCCc3cccs3)nc21
1290 | CCc1ccc(S(=O)(=O)c2cnc(N3CCN(c4ccccc4Cl)CC3)nc2N)cc1
556 | O=C(c1cnc2ccccc2n1)N1CCN(Cc2ccsc2)CC1
925 | CCc1ccc(N2CC(c3noc(-c4ccc(OC)c(OC)c4)n3)CC2=O)cc1 (stereo unspecified)
569 | CCN1CCN(C(=O)c2c(OCC3CC3)cc(=O)n3c2CCCCC3)CC1
1340 | Cc1cc(C)cc(-c2nc(-c3cccc(-c4ccnn4C)c3)no2)c1
995 | Cc1ccc(CNC(=O)C2(C)CCCN(C(=O)Nc3ccccc3Cl)C2)cc1 (stereo unspecified)
945 | COc1ccc(NC(=O)N2CCCn3nc(-c4cccc(Cl)c4)cc3C2)cc1F
873 | COc1ccc(Cl)cc1NC(=O)NC1CCN(c2ccccc2)C1=O (stereo unspecified)
970 | Cc1ccc2ncn(C3CCN(S(=O)(=O)c4ccc(Cl)cc4)CC3)c(=O)c2c1
587 | CCn1cc(CCN2CCC(C(=O)N3CCCCC3)CC2)c2cccnc21
1080 | O=[N+]([O-])c1cccc(-c2nnc3c4cnn(-c5ccc(F)cc5)c4ncn23)c1
799 | COC(=O)c1cc(S(=O)(=O)N2CCCC2C(=O)NCc2ccc(F)cc2)cn1C (stereo unspecified)
629 | CCN1CCN(c2c(S(=O)(=O)c3ccc(C)c(C)c3)cnc3cc(OC)c(OC)cc23)CC1
823 | CCOC(=O)C1CCN(c2cc3c(cc2NC(=O)NCCC(C)C)n(C)c(=O)n3C)CC1
